Data on one molecule can be found in paper PMC5124248, “Antitumor activity of TY-011 against gastric cancer by inhibiting Aurora A, Aurora B and VEGFR2 kinases” (Journal of Experimental & Clinical Cancer Research : CR, 2016).

Like-named read-outs stand apart in the source and are kept apart here.

One test concerns AGS cells. Put plainly: CCK-8 cell proliferation assay, AGS. In kind it is cell-based. Conditions: Homo sapiens, CCK-8, Fig. 3. As for the experimental part: (§1) During the logarithmic growth phase, each cell line was seeded in a 96-well tissue culture plate (Thermo Fisher Scientific, Waltham, MA, USA) at a predetermined density in complete medium, attached overnight and treated with compound for the indicated time. The medium was discarded and replaced with 10% CCK-8 (Dojindo, Kumamoto, Japan) in complete medium, then incubated the plates for another 2 h. The OD450 was measured with SpectraMax M5 (Molecular Devices, CA, USA). A background absorbance of ODblank was subtracted from all wells. The survival rate was determined with following formula: Survival rate (%) = ODcompound/ODDMSO × 100%. The IC50 values were calculated by concentration − response curve fitting using the four parameter method.

Test [1] deals with HUVECs. Put plainly: HUVEC tube formation assay. It counts as cell-based, human. Conditions: HUVECs on Matrigel, 6 h. How it is done: HUVECs were seeded onto pre-cooled 96-well tissue culture plate coated with Matrigel™ (BD Biosciences, FranklinLakes, NJ). After the cells attached, the cells were treated by various concentration of TY-011 or equivalent amount of DMSO. The plate was incubated at 37 °C, 5% CO2 humidified atmosphere for 6 h, then cell morphology was captured with a microscopy (Olympus IX73, Tokyo, Japan).

The target of a further test is T1, VEGFR2 (Homo sapiens, UniProt P35968).
T1 construct: purchased Carna Biosciences (Kobe, Japan)
Nature of the test: HTRF KinEASE-TK kinase assay, VEGFR2. It counts as biochemical. Conditions: mean ± SD of three independent experiments. An excerpt:
The inhibition of TY-011 on activity of Aurora A, Aurora B and VEGFR2 was characterized by HTRF® KinEASE™-STK/TK kit according to the manufacturer’s instructions (Cisbio Assays, Codolet, France). Aurora A and Aurora B were gifts from Professor Jia Li, Shanghai Institute of Materia Medica/Chinese Academy of Sciences. VEGFR2 was purchased from Carna Biosciences (Kobe, Japan).
For orientation: In TR-FRET formats the signal depends on donor and acceptor labels being close together.

The subject of the next test is SGC-7901 cells. Nature of the test: CCK-8 cell proliferation assay, SGC-7901. It counts as cell-based. Conditions: Homo sapiens; SGC-7901, CCK-8, Fig. 3. As for the experimental part: as §1
For orientation: Tetrazolium assays rely on reduction of a dye to a coloured formazan, in cell work by metabolically active cells.

Test [2] concerns MGC-803 cells. Put plainly: Cell cycle analysis by flow cytometry, MGC-803. In kind it is cell-based, human. How it is done:
Cell cycle distribution was determined by flow cytometry measurement of DNA content after cells were incubated with RNase A (50 μg/ml) and propidium iodide (50 μg/ml). The cellular DNA content was measured on a flow cytometer (Guava EasyCyte 6HT-2 L, Merck Millipore, Billerica, MA, USA). The percentage of each population was analyzed using the InCyte software. At least 20 000 cells were analyzed for each data point.
In general terms: A flow cytometer gives signals particle by particle.

The test system of test [3] is HUVECs. Put plainly: HUVEC growth inhibition, 6 h, CCK-8. In kind it is cell-based, human. The settings on record: various concentrations. As for the experimental part:
as §1

For test [4], the system named is CD31 (angiogenesis marker) in tumor tissues. Put plainly: CD31 immunohistochemistry of xenograft tumor tissues. The settings on record: TY-011 treated group vs control group. It counts as in vivo, BALB/c nu/nu mice. An excerpt: Female BALB/c nu/nu mice (5–6 weeks, 16–18 g) were obtained from Sino-British SIPPR/BK Lab. Animal Ltd, Shanghai, China, with the certification number of 2008001638201. The animals were housed in specific pathogen-free (SPF) conditions at Key Laboratory of Brain Functional Genomics, Ministry of Education, and were acclimatized for a week prior to use. Human MGC-803 xenografts were established by subcutaneously inoculating 5 × 10^6 cells into nude mice. When the tumors reached a mean group size of 100 ~ 150 mm^3, the mice were randomized into control and treatment groups to receive treatment accordingly. TY-011 was orally administered at 3, 6 and 9 mg/kg once a day for 13 days. […] The tumor growth was recorded with the measurement of length (L) and width (W) by caliper every other day, and calculated as tumor volume (V) = L × W^2/2. Meanwhile, the body weights of mice were recorded. The tumor volume at day n was expressed as relative tumor volume (RTV) according to the following formula: RTV% = (TVn/TV0) ×100%, where TVn is the tumor volume at day n and TV0 is the tumor volume at day 0. The therapeutic effect of treatment was calculated with formula T/C (%) = mean RTV of the treated group/mean RTV of the control group × 100%. […] The tumor regression of individual mouse was defined as the tumor volume at the end was less than the tumor volume when treatment was initiated. […]

For test [5], the system named is HUVECs. Put plainly: VEGF- or FBS-induced HUVEC proliferation assay (CCK-8). It counts as cell-based, human. The settings on record: for IC50: Homo sapiens, HUVEC. How it is done: as §1
In VEGF-induced HUVEC proliferation assay, HUVECs cells were seeded in a 96-well tissue culture plate at a predetermined density in HUVEC basic medium with 0.5% FBS. After the cells attached, cells were treated with different concentration of TY-011 in the presence of 50 ng/ml VEGF165 (R&D systems, Minneapolis, MN, USA) or 10% FBS. The CCK-8 assay as above was used for determination of cell viability.

The subject of test [6] is MGC-803 cells. Put plainly: CCK-8 cell proliferation assay, MGC-803. It counts as cell-based. Conditions: Homo sapiens. As for the experimental part:
as §1

T1 sequence (P35968 790-1356 limits assumed): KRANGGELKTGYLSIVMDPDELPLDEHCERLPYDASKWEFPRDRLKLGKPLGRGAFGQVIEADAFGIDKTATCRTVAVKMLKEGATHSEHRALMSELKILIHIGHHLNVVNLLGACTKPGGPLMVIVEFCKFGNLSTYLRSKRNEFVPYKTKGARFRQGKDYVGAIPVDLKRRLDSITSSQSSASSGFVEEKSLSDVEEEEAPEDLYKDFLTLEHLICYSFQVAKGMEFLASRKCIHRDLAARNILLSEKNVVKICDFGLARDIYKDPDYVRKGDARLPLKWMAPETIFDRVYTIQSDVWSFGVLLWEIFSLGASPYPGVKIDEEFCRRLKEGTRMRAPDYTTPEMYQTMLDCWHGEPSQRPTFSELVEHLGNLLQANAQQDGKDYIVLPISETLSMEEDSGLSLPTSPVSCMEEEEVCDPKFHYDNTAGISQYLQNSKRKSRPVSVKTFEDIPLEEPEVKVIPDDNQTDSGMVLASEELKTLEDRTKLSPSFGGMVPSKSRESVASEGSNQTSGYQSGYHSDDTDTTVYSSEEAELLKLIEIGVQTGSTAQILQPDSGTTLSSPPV

Take `CCc1cc2c(cn1)C(c1ccccc1Cl)=Nc1c(n[nH]c1C)N2` [TY-011, 9-(2-chloro-phenyl)-6-ephyl-1-methyl-2,4-dihydro-2,3,4,7,10-pentaaza-benzo[f]azulene]: the IC50 is 960 ± 100 nM in the test on AGS cells; 103 ± 6.2 nM against VEGFR2; 570 ± 30 nM in the test on SGC-7901 cells; 461 ± 61.8 nM with HUVECs [5] (50 ng/ml VEGF165, 72 h, read-out: VEGF IC50); 6100 ± 16.4 nM with HUVECs [5] (10% FBS, 72 h, read-out: FBS IC50); 210 nM with MGC-803 cells [6] (MGC-803, Table S1, proliferation, read-out: IC50 MGC-803). Besides, the IC50 with MGC-803 cells [6] (MGC-803, CCK-8, Fig. 3, read-out: IC50) worked out at 190 ± 20 nM. In addition, the “tube meshes (tube formation)” value with HUVECs [1] is given as “disturbed”. The same molecule yielded a G2/M phase cells with MGC-803 cells [2] (MGC-803, 0.2 μM, 12 h (from 26.4%)) of 51.4%. Besides, the “cells with >4 N DNA content” value with MGC-803 cells [2] (MGC-803, 0.2 μM, 48 h) is 39.8%. The “proportion of cells with >4 N DNA content” value in the test with MGC-803 cells [2] (MGC-803, 0.4 μM, 24 h (4.3% no treatment)) was 29.5%. Besides, the “proportion of G2/M phase cells” value in the test on MGC-803 cells [2] (MGC-803, 0.4 μM, 24 h (28.8% no treatment)) was found to be 65.0%. Also, in the test with HUVECs [3], the “HUVEC proliferation under tube formation treatment condition” value is “didn’t affect HUVEC proliferation”. Besides, the “CD31 staining in tumor tissues” value in test [4] is “much less than control group”. Moreover, the “IC50 in cells treated with VEGF lower than in cells treated with FBS” value in the test on HUVECs [5] (72 h) is on record as 13 fold.

In general, IC50 refers to the concentration needed to halve the response being measured.
